This note sets out measurements from US5236955A, “Anti-fungal agent” (Washington University, priority 1992, dated 1993).

Each structure is given as a SMILES string.

One experiment has as its system C. albicans. Description: Viability of C. albicans. It counts as cell-based. The settings on record: Candida albicans. As to the method: (§1) Oxatetradecanoic acids were added (final concentraton=25-500 μM) as a single dose to log phase cultures of C. alibcans grown in SAB at 30° C. (Panels A and B) and to log phase cultures of S. cerevisiae grown in YPD at 30° C. (Panels C and D). The results were compared to the number of viable organisms present in cultures treated with 0.1% EtOH alone. […] A single does of alphotericin B (final concentration=55 μM) was added to parallel cultures which served as positive controls. Assays were done in duplicate. Representative tests are shown.
(§2) Saccharomyces cerevisiae strain YM2061 (MATa ura3-52 his3Δ200 ade2-101 lys2-801 met LEU2::pRY181 can1; Flick and Johnston, Mol. Cell. Biol. 10, 4757-4769 (1990), Candida albicans strain B311 (obtained from the American Type Tissue Culture, Rockville, Md.), or Cryptococcus neoformans strain L210425 (a clinical isolate that is part of the permanent culture collection of the Mycology Laboratory, Barnes Hospital, St. Louis, Mo.) were grown overnight at 30 C. The S. cerevisiae strain was incubated in YPD medium (1% bacto-yeast extract, Gibco, Long Island, N.Y.), 2% bacto-peptone (Gibco), 2% dextrose). The C. albicans and C. neoformans strains were grown in Sabouraud's media (SAB; 2% (w/v) dextrose, 1% bacto-peptone). The following morning the cultures were diluted into fresh medium to the desired density at 600 nm (early log phase), and subsequently incubated in a rotary shaker at 30° C. until an A600 =0.5 (mid log phase) was achieved. The culture was then divided into 10 ml aliquots. A single 10 μl aliquot of a stock solution of fatty acid analog (prepared in various concentrations using absolute ethanol) was added to the culture so that the final concentration of the compound was 100-500 μM (T=0). Ten microliters of ethanol alone was added to one 10 ml culture which served as the negative control. Amphotericin B (AmB; in the form of Fungizone, Squibb) was added (final concentration=55 μM) to another culture which served as the positive control. At T=0 and 0.5-24 h after addition of fatty acid analog to the subcultures, an aliquot was removed for determining the density of the subculture at 600 nm. Cell viability was determined at each of these time points by (i) serially diluting the aliquot in 0.15M NaCl and counting cell number in a hemocytometer and (ii) plating 2-3 of the dilutions in triplicate onto plates of SAB/agar (C. albicans and C. neoformans) or YPD/agar (S. cerevisiae). These plates were subsequently incubated at 30° C. for 24-48 hr to allow for the growth of colonies. The data were expressed as the ratio of viable cells/ml in the fatty acid analog treated subculture to the number of viable cells/ml in the negative (ethanol) control culture.

The subject of experiment [1] is C. neoformans. The experiment can be described thus: Metabolic stability of O4 and resistance in C. neoformans cultures. The format is cell-based, Cryptococcus neoformans. As for the experimental part:
Cultreus of C. neoformans were exposed to a single dose of 300 μM O4 or 0.1% EtOH during mid-log phase growth (O4A, EtOH1) as in FIG. 1. Two hours later, an aliquot was removed from the culture and subjected to centrifugation at 1500×g for 10 min. The "used" O4-containing media was added to EtOH-treated cells (O4B). "Fresh" O4 was added to cells (final concentration=300 μM) that had already been exposed to O4 for 2 h (O4C). at 24 H, O4-treated cells were again pelleted and resuspended in "fresh" O4-containing media (final concentration=300 μM (O4E)). The "used" O4 media was added to a fresh culture of untreated cells (O4D) and their growth was compared to an identical population of cells treated with EtOH alone (EtOH2).
A series of tests were conducted to assess the metabolic stability of the compound (FIG. 2). Media was harvested from cells treated with a single dose of 300 μM O4 for 2 hr or for 24 hr and added to a exponentially growing culture of C. neoformans that had never been exposed to fatty acid analog. 100 fold and 10 fold decreases (respectively) in viable cell number were observed over the ensuing 2 hr (O4B and O4D in FIG. 2). […] Exponentially growing cultures were also exposed to a single 300 μM dose of O4, a single dose of 0.1% EtOH, or to no additions. Aliquots of each of the cultures were removed 4 and 24 hr later and plated on Sabouraud/agar. […]

A further experiment has as its system S. cerevisiae. Description: Viability of S. cerevisiae. It counts as cell-based. The settings on record: Saccharomyces cerevisiae. As for the experimental part: as §1, §2
The subject of experiment [2] is C. neoformans. Description: Growth of C. neoformans cultures (absorbance at 600 nm). The format is cell-based, Cryptococcus neoformans. The settings on record: single 300 μM dose, exponential phase, 30° C., SAB, up to 24 h. As for the experimental part: (§3) Panel A, survey of the effects of several oxatetradecanoic acids on the growth of C. neoformans. A culture of C. neoformans was grown at 30° C. in SAB media to midlog phase (A600 ~0.5). A single dose of fatty acid was then added to subcultures (final concentration=300 μM). EtOH(0.1%) was used as a negative control. Amphotericin B (AmB) was added (final concentraton=55 μM) as a positive control. Aliquots were withdrawn from the subcultures 0, 0.5, 2, 4, 7, 21, and 24 h after these additions and then absorbance at 600 nm was measured. All assays were done in duplicate or triplicate. A representative test is shown. Panel B, survey of the effects of oxatetradecanoic acids, dioxatetradecanoic acids and oxatridecanoic acids on the viability of C. neoformans. Fatty acid analog was added to the cultures as in Panel A. Aliquots were withdrawn 0.5, 2, 4, 7 or 8, and 24 h later and plated on SAB-agar at various dilutions to determine the number of viable organisms/ml culture. All assays were done in duplicate. Data from a representative test are expressed as the ratio of viable cells in treated cultures relative to a control culture that received 0.1% EtOH. A positive control culture received a single dose of amphotericin B (55 μM); Panel C, dose-dependent reduction in the viability of C. neoformans after addition of 4-oxatetradecanoic acid (O4) to cultures during log-phase growth at 30° C. in SAB. A single dose of the analog was given at T=0 h in the amount indicated and aliquots of the culture were withdrawn at various times to determine the number of viable cells. All assays were done in triplicate. A representative test is shown.
as §2, with “Amphotericin B (AmB; in the form of Fungizone, Squibb) was added (final concentration=55 μM) to another culture which served as the positive control. At T=0 and 0.5-24 h after addition of fatty acid analog to the subcultures, an aliquot was removed for determining the density of the subculture at 600 nm.” left out, “These plates were subsequently incubated at 30° C. for 24-48 hr to allow for the growth of colonies.” left out, “culture. […]” for “culture.”

Experiment [3] relates to C. neoformans. Description: Viability of C. neoformans (viable cells relative to EtOH control culture). The format is cell-based, Cryptococcus neoformans. The settings on record: for log reduction at 300 µM: Cryptococcus neoformans. As for the experimental part:
as §3, §2

Take `CCCCCCCCCCOCCC(=O)O` [O4, 4-oxatetradecanoic acid]: the log reduction at 300 µM with C. albicans (300 μM, 2 hr after addition, read-out: reductions in the number of viable C. albicans) is under 0.699; with C. neoformans [1] (Cryptococcus neoformans, cells already exposed for 2 hr or 24 hr (O4C, O4E), read-out: further reduction in viable cell number on fresh 300 μM media (converted)) it was 0.699; in the experiment with S. cerevisiae (300 μM, 2 hr after addition, read-out: reductions in the number of viable S. cerevisiae) it was under 0.699; in the experiment with C. neoformans [3] (300 μM single dose, relative to 0.1% EtOH control, read-out: decrease in viable cells (converted)), 4; in the experiment on C. neoformans [3] (300 μM, between 1 and 7 h after treatment, read-out: further reductions in viable cell number) it was under 1. For the same molecule, the log reduction at 500 µM with C. albicans (500 μM, read-out: reduction in the number of viable organisms (C. albicans)) was in the range of 1 to 2; with S. cerevisiae (500 μM, read-out: reduction in the number of viable organisms (S. cerevisiae)), 1 to 2. Moreover, the “resistance or tolerance of cells after exposure” value in the experiment with C. neoformans [1] (colonies from cultures exposed 4 and 24 hr, re-exposed to 300 μM) is “do not become resistant or tolerant”. Also, the “effect on growth of C. neoformans, as determined by optical density” value in the experiment with C. neoformans [2] is recorded as “growth arrest equivalent to that observed with 55 μM amphotericin B”. The “time needed to produce the decrease in viable cells” value in the experiment with C. neoformans [3] (300 μM single dose) is at most 1 h. For the same molecule, the “fungicidal / fungistatic effect on C. neoformans” value in the experiment with C. neoformans [3] (300 μM single dose, screening assay) is listed as “fungicidal”. Besides, the “cell number after single dose” value in the experiment with C. neoformans [3] (between 8 and 24 hr after single dose) is recorded as “gradual increase in cell number”. Besides, the “dose dependence of fungicidal activity” value with C. neoformans [3] (four doses, 100-300 μM) is listed as “progressive reduction of viable cell number”.
